How the values were obtained:
THP-1 = experiment: Cell inhibition assay (WST-1 cell viability), THP-1; assay type: cell-based; conditions: Homo sapiens, THP-1 cells, 72-96 h, read-out: Inhibition cell proliferation THP-1
Protocol: (§1) Cancer cell lines (U937, HCT-116, THP-1 and HUT78) growing in log phase were harvested and seeded at 1000-2000 cells/well (100 μl final volume) into 96-well tissue culture plates. Following 24 h of growth cells were treated with compound.
(§2) Plates were then re-incubated for a further 72-96 h before a WST-1 cell viability assay was conducted according to the suppliers (Roche Applied Science) instructions. Data were expressed as a percentage inhibition of the control, measured in the absence of inhibitor, as follows:— % inhibition=100−((S^i/S^o)×100) where S^i is the signal in the presence of inhibitor and S^o is the signal in the presence of DMSO. Dose response curves were generated from 8 concentrations (top final concentration 10 μM, with 3-fold dilutions), using 6 replicates. IC50 values were determined by non-linear regression analysis, after fitting the results to the equation for sigmoidal dose response with variable slope (% activity against log concentration of compound), using Graphpad Prism software. IC50 values were allocated to one of the three ranges as follows: • Range A IC %)<100 nM • Range B: 100 nM<IC50<1000 nM • Range C: IC50>1000 nM

HCT-116 = experiment: Cell inhibition assay (WST-1 cell viability), HCT-116; assay type: cell-based; conditions: Homo sapiens, HCT-116 cells, 72-96 h, read-out: Inhibition cell proliferation HCT-116
Protocol: as §1, §2

recombinant human DHFR = biological target: T1, recombinant human DHFR (Homo sapiens, UniProt P00374); experiment: DHFR enzyme inhibition assay (Sigma kit CS0340); assay type: biochemical; conditions: NADPH 60 μM, dihydrofolic acid 50 μM
T1 construct: purchased Sigma CS0340
T1 sequence (P00374 1-187): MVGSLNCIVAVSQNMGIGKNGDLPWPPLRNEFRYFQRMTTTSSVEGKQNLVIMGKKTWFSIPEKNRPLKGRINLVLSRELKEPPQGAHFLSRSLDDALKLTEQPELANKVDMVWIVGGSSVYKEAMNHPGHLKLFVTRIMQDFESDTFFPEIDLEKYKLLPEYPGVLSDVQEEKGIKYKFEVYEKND
Protocol: The ability of compounds to inhibit DHFR activity was measured in an assay based on the ability of DHFR to catalyse the reversible NADPH-dependent reduction of dihydrofolic acid to tetrahydrofolic acid using a Sigma kit (Catalogue number CS0340). This uses proprietary assay buffer and recombinant human DHFR at 7.5×10^−4 Unit per reaction, NADPH at 60 μM and dihydrofolic acid at 50 μM. The reaction was followed by monitoring the decrease in absorbance at 340 nm, for a 2 minute period, at room temperature, and the enzyme activity was calculated as the rate of decrease in absorbance. Enzyme activity, in the presence of inhibitor, was expressed as a percentage of inhibitor-free activity and the inhibitor IC50 was determined from a sigmoidal dose response curve using XLfit software (% activity against log concentration of compound). Each sample was run in triplicate and each dose response curve was composed of 10 dilutions of the inhibitor.

HUT78 = experiment: Cell inhibition assay (WST-1 cell viability), HUT78; assay type: cell-based; conditions: Homo sapiens, HUT78 cells, 72-96 h, read-out: Inhibition cell proliferation HUT
Protocol: as §1, §2

U937 = experiment: Cell inhibition assay (WST-1 cell viability), U937; assay type: cell-based; conditions: Homo sapiens, U-937, U937 cells, 72-96 h, read-out: Inhibition cell proliferation U937
Protocol: as §1, §2

| SMILES | IC50 (THP-1) | IC50 (HCT-116) | IC50 (recombinant human DHFR) | IC50 (U937) | IC50 (HUT78) |
| --- | --- | --- | --- | --- | --- |
| Cc1c(CNc2ccc(C(=O)N[C@@H](CC(C)C)C(=O)O)cc2)cnc2nc(N)nc(N)c12 [Example 2, (S)-2-(4-((2,4-diamino-5-methylpyrido[2,3-a]pyrimidin-6-yl)methylamino)benzamido)-4-methylpentanoic Acid] | – | – | < 100 nM | – | – |
| Cc1c(CNc2ccc(CN[C@@H](CC(C)C)C(=O)O)cc2)cnc2nc(N)nc(N)c12 [Example 4, (S)-2-{4-[(2,4-Diamino-5-methyl-pyrido[2,3-d]pyrimidin-6-ylmethyl)-amino]-benzylamino}-4-methyl-pentanoic Acid] | – | – | < 100 nM | – | – |
| COc1cc(NCc2ccc3nc(N)nc(N)c3c2C)cc(OC)c1OCC(=O)N[C@@H](CC(C)C)C(=O)OC(C)(C)C [Example 6, tert-Butyl N-[(4-{[(2,4-diamino-5-methylquinazolin-6-yl)methyl]amino}-2,6-dimethoxyphenoxy)acetyl]-L-leucinate] | < 100 nM | 100 to 1000 nM | > 1000 nM | < 100 nM | 100 to 1000 nM |
| COc1cc(NCc2ccc3nc(N)nc(N)c3c2C)cc(OC)c1OCC(=O)N[C@@H](CC(C)C)C(=O)O [Example 7, N-[(4-{[(2,4-diamino-5-methylquinazolin-6-yl)methyl]amino}-2,6-dimethoxyphenoxy)acetyl]-L-leucine] | – | – | < 100 nM | – | – |
| COc1cc(NCc2ccc3nc(N)nc(N)c3c2C)cc(OC)c1OCCN[C@@H](CC(C)C)C(=O)O [Example 9, N-[2-(4-{[(2,4-diamino-5-methylquinazolin-6-yl)methyl]amino}-2,6-dimethoxyphenoxy)ethyl]-L-leucine] | – | – | < 100 nM | – | – |
| COc1cc(NCc2ccc3nc(N)nc(N)c3c2C)cc(OC)c1OCCN[C@@H](CC(C)C)C(=O)OC(C)(C)C [Example 10, tert-Butyl N-[2-(4-{[(2,4-diamino-5-methylquinazolin-6-yl)methyl]amino}-2,6-dimethoxyphenoxy)ethyl]-L-leucinate] | 100 to 1000 nM | 100 to 1000 nM | 100 to 1000 nM | 100 to 1000 nM | 100 to 1000 nM |

Second part, led by results:

| IC50 (THP-1) | IC50 (HCT-116) | IC50 (recombinant human DHFR) | IC50 (U937) | SMILES | IC50 (HUT78) |
| --- | --- | --- | --- | --- | --- |
| < 100 nM | < 100 nM | > 1000 nM | < 100 nM | Cc1c(CNc2ccc(C(=O)N[C@@H](CC(C)C)C(=O)OC3CCCC3)cc2)cnc2nc(N)nc(N)c12 [Example 1, (S)-2-{4-[(2,4-Diamino-5-methyl-pyrido[2,3-d]pyrimidin-6-ylmethyl)-amino]-benzoylamino}-4-methyl-pentanoic Acid Cyclopentyl Ester] | < 100 nM |
| 100 to 1000 nM | > 1000 nM | > 1000 nM | < 100 nM | Cc1c(CNc2ccc(CN[C@@H](CC(C)C)C(=O)OC3CCCC3)cc2)cnc2nc(N)nc(N)c12 [Example 3, (S)-2-{4-[(2,4-Diamino-5-methyl-pyrido[2,3-d]pyrimidin-6-ylmethyl)-amino]-benzylamino}-4-methyl-pentanoic Acid Cyclopentyl Ester] | 100 to 1000 nM |
| < 100 nM | 100 to 1000 nM | > 1000 nM | < 100 nM | COc1cc(NCc2ccc3nc(N)nc(N)c3c2C)cc(OC)c1OCC(=O)N[C@@H](CC(C)C)C(=O)OC1CCCC1 [Example 5, Cyclopentyl N-[(4-{[(2,4-diamino-5-methylquinazolin-6-yl)methyl]amino}-2,6-dimethoxyphenoxy)acetyl]-L-leucinate] | < 100 nM |
| < 100 nM | 100 to 1000 nM | 100 to 1000 nM | < 100 nM | COc1cc(NCc2ccc3nc(N)nc(N)c3c2C)cc(OC)c1OCCN[C@@H](CC(C)C)C(=O)OC1CCCC1 [Example 8, Cyclopentyl N-[2-(4-{[(2,4-diamino-5-methylquinazolin-6-yl)methyl]amino}-2,6-dimethoxyphenoxy)ethyl]-L-leucinate] | < 100 nM |
